Reference: ChEMBL document CHEMBL1201862, “PubChem BioAssay data set” (2004)
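Method: 48-hour compound exposure of cells in 96-well plates, five concentrations, linear interpolation of endpoints. GI50 is the concentration that inhibits growth by half.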 Active and inactive are the calls of the source. Cut-off read from the data, not from the text of the source: active = GI50 up to about 1.1 µM and inactive = higher.

Key:
Test in all cases: NCI tumour cell line growth inhibition, 48 h
[1] = test system: A498
[2] = test system: A549
[3] = test system: CAKI-1
[4] = test system: CCRF-CEM
[5] = test system: COLO 205
[6] = test system: DLD-1
[7] = test system: DMS-273
[8] = test system: EKVX
[9] = test system: HCC 2998
[10] = test system: HCT-116
[11] = test system: HCT-15
[12] = test system: HL-60
[13] = test system: HOP-18
[14] = test system: HOP-62
[15] = test system: HOP-92
[16] = test system: HT-29
[17] = test system: IGROV-1
[18] = test system: K562
[19] = test system: KM-20L2
[20] = test system: KM12
[21] = test system: LOX IMVI
[22] = test system: M19-MEL
[23] = test system: MCF7
[24] = test system: MOLT-4
[25] = test system: Malme-3M
[26] = test system: NCI-H226
[27] = test system: NCI-H23
[28] = test system: NCI-H460
[29] = test system: NCI-H522
[30] = test system: NCI/ADR-RES
[31] = test system: OVCAR-3
[32] = test system: OVCAR-4
[33] = test system: OVCAR-5
[34] = test system: OVCAR-8
[35] = test system: RPMI-8226
[36] = test system: RXF 393
[37] = test system: SF-268
[38] = test system: SF-295
[39] = test system: SF-539
[40] = test system: SK-MEL-28
[41] = test system: SK-MEL-2
[42] = test system: SK-MEL-5
[43] = test system: SK-OV-3
[44] = test system: SN12C
[45] = test system: SNB-19
[46] = test system: SNB-75
[47] = test system: SNB-78
[48] = test system: SW-620
[49] = test system: U-251
[50] = test system: UACC-257
[51] = test system: UACC-62
[52] = test system: UO-31
[53] = test system: XF498
[54] = test system: 786-0
[55] = test system: ACHN
[56] = test system: DMS-114
[57] = test system: LXFL 529
[58] = test system: M14
[59] = test system: TK-10

CC(C(=O)O)c1cnn(-c2ccccc2)c1-n1cccc1 (stereo not given)
GI50 [1]: > 100 µM (inactive) | GI50 [2]: > 100 µM (inactive) | GI50 [3]: > 100 µM (inactive) | GI50 [4]: > 100 µM (inactive) | GI50 [5]: > 100 µM (inactive) | GI50 [6]: > 100 µM (inactive) | GI50 [7]: > 100 µM (inactive) | GI50 [8]: > 100 µM (inactive) | GI50 [9]: > 100 µM (inactive) | GI50 [10]: > 100 µM (inactive) | GI50 [11]: > 100 µM | GI50 [12]: > 100 µM (inactive) | GI50 [13]: > 100 µM (inactive) | GI50 [14]: > 100 µM (inactive) | GI50 [15]: > 100 µM (inactive) | GI50 [16]: > 100 µM (inactive) | GI50 [17]: > 100 µM (inactive) | GI50 [18]: > 100 µM (inactive) | GI50 [19]: > 100 µM (inactive) | GI50 [20]: > 100 µM (inactive) | GI50 [21]: > 100 µM (inactive) | GI50 [22]: > 100 µM (inactive) | GI50 [23]: > 100 µM (inactive) | GI50 [24]: > 100 µM (inactive) | GI50 [25]: > 100 µM (inactive) | GI50 [26]: > 100 µM (inactive) | GI50 [27]: > 100 µM (inactive) | GI50 [28]: > 100 µM (inactive) | GI50 [29]: > 100 µM (inactive) | GI50 [30]: > 100 µM (inactive) | GI50 [31]: > 63.7 µM (inactive) | GI50 [32]: > 100 µM (inactive) | GI50 [33]: > 100 µM (inactive) | GI50 [34]: > 100 µM (inactive) | GI50 [35]: > 100 µM (inactive) | GI50 [36]: > 100 µM (inactive) | GI50 [37]: > 100 µM (inactive) | GI50 [38]: > 100 µM (inactive) | GI50 [39]: > 100 µM (inactive) | GI50 [40]: > 100 µM (inactive) | GI50 [41]: > 100 µM (inactive) | GI50 [42]: > 100 µM (inactive) | GI50 [43]: > 100 µM (inactive) | GI50 [44]: > 100 µM (inactive) | GI50 [45]: > 100 µM (inactive) | GI50 [46]: > 100 µM (inactive) | GI50 [47]: > 100 µM (inactive) | GI50 [48]: > 63 µM (inactive) | GI50 [49]: > 100 µM (inactive) | GI50 [50]: > 100 µM (inactive) | GI50 [51]: > 100 µM (inactive) | GI50 [52]: > 100 µM (inactive) | GI50 [53]: > 100 µM (inactive)

O=C(CC1C(=O)c2ccccc2C1=C1C(=O)c2ccccc2C1=O)c1ccccc1 (stereo not given)
GI50 [54]: 50.6 µM (inactive) | GI50 [1]: > 100 µM (inactive) | GI50 [2]: > 100 µM (inactive) | GI50 [55]: 80.4 µM (inactive) | GI50 [3]: > 100 µM (inactive) | GI50 [4]: 32 µM (inactive) | GI50 [5]: 37.2 µM (inactive) | GI50 [6]: > 100 µM (inactive) | GI50 [56]: > 100 µM (inactive) | GI50 [7]: > 100 µM (inactive) | GI50 [8]: > 100 µM (inactive) | GI50 [9]: > 100 µM (inactive) | GI50 [11]: 64.4 µM | GI50 [12]: 44.6 µM (inactive) | GI50 [13]: > 100 µM (inactive) | GI50 [14]: > 100 µM (inactive) | GI50 [15]: 74.3 µM (inactive) | GI50 [16]: > 100 µM (inactive) | GI50 [17]: > 100 µM (inactive) | GI50 [18]: 30.3 µM (inactive) | GI50 [19]: > 100 µM (inactive) | GI50 [20]: > 100 µM (inactive) | GI50 [21]: > 100 µM (inactive) | GI50 [57]: 85.5 µM (inactive) | GI50 [58]: > 100 µM (inactive) | GI50 [22]: 78.9 µM (inactive) | GI50 [24]: 77.3 µM (inactive) | GI50 [25]: > 100 µM (inactive) | GI50 [26]: > 100 µM (inactive) | GI50 [27]: > 100 µM (inactive) | GI50 [28]: > 100 µM (inactive) | GI50 [29]: 19.9 µM (inactive) | GI50 [32]: 77.6 µM (inactive) | GI50 [33]: > 100 µM (inactive) | GI50 [34]: > 100 µM (inactive) | GI50 [35]: > 100 µM (inactive) | GI50 [36]: > 100 µM (inactive) | GI50 [37]: > 100 µM (inactive) | GI50 [38]: > 100 µM (inactive) | GI50 [39]: > 100 µM (inactive) | GI50 [40]: > 100 µM (inactive) | GI50 [41]: > 100 µM (inactive) | GI50 [42]: > 100 µM (inactive) | GI50 [43]: > 100 µM (inactive) | GI50 [44]: > 100 µM (inactive) | GI50 [45]: > 100 µM (inactive) | GI50 [46]: > 100 µM (inactive) | GI50 [47]: > 100 µM (inactive) | GI50 [48]: > 100 µM (inactive) | GI50 [59]: > 100 µM (inactive) | GI50 [49]: > 100 µM (inactive) | GI50 [50]: > 100 µM (inactive) | GI50 [51]: > 100 µM (inactive) | GI50 [52]: > 100 µM (inactive) | GI50 [53]: > 100 µM (inactive)

O=C(N/C(=C\c1ccc([N+](=O)[O-])cc1)c1nc2ccccc2s1)c1ccccc1
GI50 [54]: 18 µM (inactive) | GI50 [1]: 31.3 µM (inactive) | GI50 [2]: 30.7 µM (inactive) | GI50 [55]: 29.2 µM (inactive) | GI50 [3]: 31 µM (inactive) | GI50 [4]: 19.1 µM (inactive) | GI50 [5]: 58.3 µM (inactive) | GI50 [6]: 19.9 µM (inactive) | GI50 [56]: 23.3 µM (inactive) | GI50 [7]: 35.7 µM (inactive) | GI50 [9]: 57.4 µM (inactive) | GI50 [10]: 27 µM (inactive) | GI50 [11]: 27.2 µM | GI50 [13]: 18.5 µM (inactive) | GI50 [14]: 35.6 µM (inactive) | GI50 [15]: 23.6 µM (inactive) | GI50 [16]: 31.6 µM (inactive) | GI50 [17]: 23 µM (inactive) | GI50 [18]: 17.7 µM (inactive) | GI50 [19]: 40.7 µM (inactive) | GI50 [20]: 22.5 µM (inactive) | GI50 [21]: 20 µM (inactive) | GI50 [57]: 18.8 µM (inactive) | GI50 [58]: 31.9 µM (inactive) | GI50 [22]: 22.9 µM (inactive) | GI50 [24]: 19.1 µM (inactive) | GI50 [25]: > 100 µM (inactive) | GI50 [27]: 19.7 µM (inactive) | GI50 [29]: > 10 µM (inactive) | GI50 [31]: 29.3 µM (inactive) | GI50 [32]: 29.9 µM (inactive) | GI50 [33]: 54.7 µM (inactive) | GI50 [34]: 24.6 µM (inactive) | GI50 [35]: 19.2 µM (inactive) | GI50 [36]: 28.6 µM (inactive) | GI50 [37]: 20.1 µM (inactive) | GI50 [39]: 23.6 µM (inactive) | GI50 [40]: 39.5 µM (inactive) | GI50 [41]: 23.7 µM (inactive) | GI50 [42]: 25.7 µM (inactive) | GI50 [43]: > 100 µM (inactive) | GI50 [44]: 20.9 µM (inactive) | GI50 [45]: 32.8 µM (inactive) | GI50 [46]: 26.7 µM (inactive) | GI50 [47]: 37.4 µM (inactive) | GI50 [48]: 26.7 µM (inactive) | GI50 [59]: 22.6 µM (inactive) | GI50 [49]: 31.6 µM (inactive) | GI50 [50]: 28.1 µM (inactive) | GI50 [51]: 20.4 µM (inactive) | GI50 [52]: 24.3 µM (inactive) | GI50 [53]: 44.8 µM (inactive)
